Values after ≈ are worked out from the molar mass of the structure shown. Square brackets hold non-standard residues; d marks the D form. Peptide text beside a SMILES is read from it. Orn = NCCC[C@H](N)C(=O)O
Tests used:
Format in all cases: functional
Staphylococcus aureus [1] = assay: Antimicrobial activity against Staphylococcus aureus
Staphylococcus aureus [2] = assay: Antimicrobial activity against methicillin-resistant Staphylococcus aureus
Enterococcus faecalis [3] = assay: Antimicrobial activity against Enterococcus faecalis
Enterococcus faecalis [4] = assay: Antimicrobial activity against vancomycin-resistant Enterococcus faecalis
Enterococcus faecium [5] = assay: Antimicrobial activity against Enterococcus faecium
Enterococcus faecium [6] = assay: Antimicrobial activity against vancomycin-resistant Enterococcus faecium
Streptococcus pneumoniae [7] = assay: Antimicrobial activity against Streptococcus pneumoniae
Escherichia coli = assay: Antimicrobial activity against Escherichia coli
Pseudomonas aeruginosa = assay: Antimicrobial activity against Pseudomonas aeruginosa
Burkholderia cepacia = assay: Antimicrobial activity against Pseudomonas cepacia
[8] = test system: Stenotrophomonas maltophilia; assay: Antimicrobial activity against Xanthomonas maltophilia
Candida albicans = assay: Antimicrobial activity against Candida albicans
Streptococcus pneumoniae [9] = assay: Antimicrobial activity against penicillin-resistant Streptococcus pneumoniae

CC(C)C[C@@H]1NC(=O)[C@H](CCCN)NC(=O)[C@H](C(C)C)NC(=O)[C@H](Cc2c[nH]c3ccccc23)NC(=O)[C@H](CC(=O)O)NC(=O)[C@H](CC(N)=O)NC(=O)[C@@H](Cc2ccccc2)NC(=O)[C@H](Cc2c[nH]c3ccccc23)NC(=O)[C@@H]2CCCN2C(=O)[C@@H](Cc2ccc(O)cc2)NC1=O [LOLOATIN C] (cyclo(DWV[Orn]L[dY]PW[dF]N))
MIC (Staphylococcus aureus [1]): 0.5 µg/mL (≈ 0.374 µM)
MIC (Staphylococcus aureus [2]): 0.5 µg/mL (≈ 0.374 µM)
MIC (Enterococcus faecalis [3]): 1 µg/mL (≈ 0.749 µM)
MIC (Enterococcus faecalis [4]): 1 µg/mL (≈ 0.749 µM)
MIC (Enterococcus faecium [5]): 2 µg/mL (≈ 1.5 µM)
MIC (Enterococcus faecium [6]): 2 µg/mL (≈ 1.5 µM)
MIC (Streptococcus pneumoniae [7]): < 0.25 µg/mL
MIC (Escherichia coli): 1 µg/mL (≈ 0.749 µM)
MIC (Pseudomonas aeruginosa): > 32 µg/mL
MIC (Burkholderia cepacia): > 32 µg/mL
MIC [8]: > 32 µg/mL
MIC (Candida albicans): 8 µg/mL (≈ 5.99 µM)

CC(C)C[C@@H]1NC(=O)[C@H](CCCN)NC(=O)[C@H](C(C)C)NC(=O)[C@H](Cc2c[nH]c3ccccc23)NC(=O)[C@H](CC(=O)O)NC(=O)[C@H](CC(N)=O)NC(=O)[C@@H](Cc2ccccc2)NC(=O)[C@H](Cc2ccccc2)NC(=O)[C@@H]2C[C@@H](O)CN2C(=O)[C@@H](Cc2ccc(O)cc2)NC1=O [LOLOATIN D]
MIC (Staphylococcus aureus [1]): 8 µg/mL (≈ 6.1 µM)
MIC (Staphylococcus aureus [2]): 8 µg/mL (≈ 6.1 µM)
MIC (Enterococcus faecalis [3]): 8 µg/mL (≈ 6.1 µM)
MIC (Enterococcus faecalis [4]): 8 µg/mL (≈ 6.1 µM)
MIC (Enterococcus faecium [5]): 8 µg/mL (≈ 6.1 µM)
MIC (Enterococcus faecium [6]): 8 µg/mL (≈ 6.1 µM)
MIC (Streptococcus pneumoniae [7]): 4 µg/mL (≈ 3.05 µM)
MIC (Streptococcus pneumoniae [9]): 4 µg/mL (≈ 3.05 µM)
MIC (Escherichia coli): > 32 µg/mL
MIC (Pseudomonas aeruginosa): > 32 µg/mL
MIC (Burkholderia cepacia): > 32 µg/mL
MIC [8]: > 32 µg/mL
MIC (Candida albicans): 16 µg/mL (≈ 12.2 µM)

CC(C)C[C@@H]1NC(=O)[C@H](CCCN)NC(=O)[C@H](C(C)C)NC(=O)[C@H](Cc2c[nH]c3ccccc23)NC(=O)[C@H](CC(=O)O)NC(=O)[C@H](CC(N)=O)NC(=O)[C@@H](Cc2ccccc2)NC(=O)[C@H](Cc2ccccc2)NC(=O)[C@@H]2CCCN2C(=O)[C@@H](Cc2ccc(O)cc2)NC1=O [LOLOATIN B]
MIC (Staphylococcus aureus [1]): 2 µg/mL (≈ 1.54 µM)
MIC (Staphylococcus aureus [2]): 2 µg/mL (≈ 1.54 µM)
MIC (Enterococcus faecalis [3]): 2 µg/mL (≈ 1.54 µM)
MIC (Enterococcus faecalis [4]): 2 µg/mL (≈ 1.54 µM)
MIC (Enterococcus faecium [5]): 2 µg/mL (≈ 1.54 µM)
MIC (Enterococcus faecium [6]): 2 µg/mL (≈ 1.54 µM)
MIC (Streptococcus pneumoniae [7]): 1 µg/mL (≈ 0.771 µM)
MIC (Streptococcus pneumoniae [9]): 1 µg/mL (≈ 0.771 µM)
MIC (Escherichia coli): > 32 µg/mL
MIC (Pseudomonas aeruginosa): > 32 µg/mL
MIC (Burkholderia cepacia): > 32 µg/mL
MIC [8]: > 32 µg/mL
MIC (Candida albicans): 8 µg/mL (≈ 6.17 µM)

CC(C)C[C@@H]1NC(=O)[C@H](CCCN)NC(=O)[C@H](C(C)C)NC(=O)[C@H](Cc2ccc(O)cc2)NC(=O)[C@H](CC(=O)O)NC(=O)[C@H](CC(N)=O)NC(=O)[C@@H](Cc2ccccc2)NC(=O)[C@H](Cc2ccccc2)NC(=O)[C@@H]2CCCN2C(=O)[C@@H](Cc2ccc(O)cc2)NC1=O [LOLOATIN A]
MIC (Staphylococcus aureus [1]): 4 µg/mL (≈ 3.14 µM)
MIC (Staphylococcus aureus [2]): 4 µg/mL (≈ 3.14 µM)
MIC (Enterococcus faecalis [3]): 4 µg/mL (≈ 3.14 µM)
MIC (Enterococcus faecalis [4]): 4 µg/mL (≈ 3.14 µM)
MIC (Enterococcus faecium [5]): 4 µg/mL (≈ 3.14 µM)
MIC (Enterococcus faecium [6]): 4 µg/mL (≈ 3.14 µM)
MIC (Streptococcus pneumoniae [7]): 1 µg/mL (≈ 0.785 µM)
MIC (Streptococcus pneumoniae [9]): 2 µg/mL (≈ 1.57 µM)
MIC (Escherichia coli): > 32 µg/mL
MIC (Pseudomonas aeruginosa): > 32 µg/mL
MIC (Burkholderia cepacia): > 32 µg/mL
MIC [8]: > 32 µg/mL
MIC (Candida albicans): 8 µg/mL (≈ 6.28 µM)
